Measured values published in US7816511B2, “Remedies for heart failure” (Asubio Pharma Co., Ltd., priority 2000, dated 2010).

How the values were obtained:
[1] = test system: OSF-2 mRNA; assay: Expression analysis of OSF-2 mRNA using MC3T3-E1 cells (real-time PCR); type: cell-based, murine; details: 30 μM, 24 hours
[2] = test system: OSF-2 promoter; assay: Reporter assay using COS-1 cells with human OSF-2 reporter plasmid pGL3-hOSFgE (luciferase); type: cell-based; details: 24 hours after compound addition, pGL3-control (SV40 promoter) as control
Source text: A region extending from about 2 kb upstream of the initiation codon to immediately before the initiation codon was amplified by PCR using human OSF-2 gene #2 obtained in Example 10-1 as a template and primers (12) 5′-[…]-3′ (SEQ ID NO: 25) and (13) 5′-[…]-3′ (SEQ ID NO: 26). Primer (13) was designed to insert a restriction enzyme XhoI recognition site into the 5′ end, and this amplified fragment was digested with restriction enzymes SpeI and XhoI to give a fragment of about 2 kb, which was then ligated to a vector fragment of pGL3-enhancer (Promega) digested with restriction enzymes NheI and XhoI located upstream of the luciferase gene using a ligation kit (TAKARA SHUZO CO., LTD.) to give pGL3-hOSFgE. The nucleotide sequence of the insert was determined according to the method of Example 1-5 to confirm that it was identical with the nucleotide sequence determined in Example 10-1.
COS-1 cells were plated on a 96-well plate at a density of 3×10^4 cells/well and the plate was incubated at 37° C. for 16-24 hours and then transiently transfected with OSF-2 reporter plasmid pGL3-hOSFgE shown in Example 10 using LipofectAMINE 2000 reagent (GIBCO), and after incubation for 24 hours at 37° C., the medium was replaced. […] Luciferase activity was assayed according to the protocol of a luciferase assay system (Promega) and detected with 1420 multilabel counter (Wallac). […]

[3] = test system: Sprague-Dawley rats; assay: Echocardiography 3 weeks after co-transfection of rOSF-2 plasmid and antisense/sense/scramble nucleotides into the rat heart; type: in vivo; details: 3 weeks post transfection; for EDV: end-diastolic volume / ESV: end-systolic volume / FS: fractional shortening of the inner diameter of the left ventricle / IVPWD / IVSTD: thickness of the end-diastolic interventricular septum / LVIDD: inner diameter of the end-diastolic left ventricle / LVIDS: inner diameter of the end-systolic left ventricle / LVPWS: thickness of the posterior wall of the end-systolic left ventricle / TVSTS: echocardiography, nucleotides co-injected with rOSF-2 plasmid
Description: HVJ-liposomes were prepared as described in Example 6 by adding 50 μl of HMG-1,-2 mixture (1 mg/ml, Wako Pure Chemical Industries) to 200 μg of the plasmid solution prepared in Example 6.1 and 1.4 mg of the antisense nucleotide solution selected in Example 7. Sense and scramble nucleotide sequences were also prepared in the same manner.
The HVJ-liposome/DNA solution was injected into the left ventricle of the heart (apical and lateral sites) of 13-weeks old Sprague-Dawley rats (male) in an amount of 100 μl each at 3 sites (a total volume of 300 μl) using a 30-gauge needle (rOSF-2/antisense group, rOSF-2/sense group and rOSF-2/scramble group). Similarly, pcDNA4/rOSF-2 was injected as a positive control group and pcDNA4/His-Myc vector was injected as a negative control group.
After anesthesia with ketamine (50 mg/ml) and xylazine (10 mg/ml) at 3 weeks post transfection, echocardiography was performed using Core Vision Pro SSA 350A (probe: 7 MHz, Toshiba).

[4] = test system: Dahl-S rats; assay: Survival of Dahl-S heart failure model rats after antisense transfection into the heart; type: in vivo, rat; details: 30 weeks post transfection, Dahl-S rats on 8% salt diet
Description: HVJ-liposomes were prepared as described in Example 6.2 by adding 50 μl of HMG-1,-2 mixture (1 mg/ml, Wako Pure Chemical Industries) to 1.4 mg of a solution of the antisense nucleotides selected in Example 7 dissolved in BSS buffer. Sense nucleotides were also prepared in the same manner.
The HVJ-liposome/DNA solution was injected into the left ventricle of the heart (apical and lateral sites) of 13-weeks old Dahl-S rats (DIS/Eis, Eisai, male) raised on an 8% salt diet from the age of 8 weeks in an amount of 75 μl each at 4 sites (a total volume of 300 μl) using a 30-gauge needle (antisense group: 13 rats, sense group: 13 rats).

[5] = test system: Myc-His-rOSF-2 fused protein; assay: Selection of antisense nucleotide sequences: ELISA of Myc-His-rOSF-2 fused protein in transfected COS-1 cells; type: cell-based, rat
Source text: Five antisense nucleotide sequences shown as SEQ ID NOs: 12-16 were designed by selecting regions containing an initiation codon AUG but not containing three continuous guanines (triplet G) and incapable of forming a hairpin structure or self-annealing and synthesized by an outer contractor. All the antisense nucleotide sequences are phosphorothioate type.
The Myc-His-rOSF-2 fused protein expression vector pcDNA4/Myc-His/rOSF-2 described in Example 5 was introduced into COS-1 cells, and the antisense nucleotide sequences prepared in 1 above were introduced to screen antisense nucleotide sequences inhibiting the expression of Myc-His-rOSF 2 fused protein. The expression level of Myc-His-rOSF-2 fused protein was assayed by ELISA (Enzyme-Linked Immunosorbent Assay) using a Myc-specific monoclonal antibody (Invitrogen). Specifically, COS-1 cells were plated on a 96-well plate at a density of 2×10^4 cells/well. […]
The culture supernatant was immobilized to an EIA/RIA plate (Costar) by incubating 50 μl thereof at 37° C. for 1-2 hours, and washed twice with 200 μl of Dulbecco's phosphate-buffered saline containing 0.1% Tween (PBST). […] After incubation with 50 μl of TMB (3,3′,5,5′-tetramethylbenzidine) reagent (KPL) at room temperature for 30 minutes, the reaction was stopped by adding 50 μl of 0.1 N sulfuric acid and the absorbance at 450 nm was measured with a microplate reader. […]

Compound | expression of OSF-2 mRNA (standardized by GAPDH mRNA) [1] | luciferase activity [2] | EDV: end-diastolic volume [3] [µL] | ESV: end-systolic volume [3] [µL] | FS: fractional shortening of the inner diameter of the left ventricle [3] [%] | IVPWD [3] [mm] | IVSTD: thickness of the end-diastolic interventricular septum [3] [mm] | LVIDD: inner diameter of the end-diastolic left ventricle [3] [mm] | LVIDS: inner diameter of the end-systolic left ventricle [3] [mm] | LVPWS: thickness of the posterior wall of the end-systolic left ventricle [3] [mm] | TVSTS [3] [mm] | survival rate [4] [%] | inhibitory activity against OSF-2 protein production ([5]; final concentration 10 nM, FIG. 3) | inhibitory activity against OSF-2 protein production ([5]; final concentration 100 nM, 3 days, FIG. 2) | cardiac dilatation (LVIDD, LVIDS vs. positive control, sense and scramble groups) [3]
Cc1ccccc1CNc1ncnc2c1ncn2[C@@H]1O[C@H](CO)[C@@H](O)[C@H]1O [Metrifudil, N-[(2-methylphenyl)methyl]-adenosine] | inhibited the expression of OSF-2 mRNA | inhibit luciferase activity specifically to OSF-2 promoter | – | – | – | – | – | – | – | – | – | – | – | – | –
Nc1nc(Cl)nc2c1ncn2[C@@H]1O[C@H](COP(=O)([O-])OP(=O)([O-])OP(=O)([O-])[O-])[C@@H](O)[C@H]1O.[Na+].[Na+].[Na+].[Na+] [2-chloroadenosine 5′-triphosphate tetrasodium] | inhibited the expression of OSF-2 mRNA | inhibit luciferase activity specifically to OSF-2 promoter | – | – | – | – | – | – | – | – | – | – | – | – | –
scramble: scramble nucleotide sequence with the 5′, 3′ direction reversed to SEQ ID NO: 12 (GTCCCGACTTCTACCAAGGA; listed as DNA, chemistry not given here) | – | – | 307.6 ± 10.4 | 73.4 ± 7.5 | 46.7 ± 1.6 | 1.68 ± 0.07 | 1.26 ± 0.12 | 7.60 ± 11 | 4.06 ± 0.18 | 2.66 ± 0.07 | 2.60 ± 0.15 | – | – | – | –
sense: sense nucleotide sequence that is a sense strand corresponding to SEQ ID NO: 12 (CAGGGCTGAAGATGGTTCCT; listed as DNA, chemistry not given here) | – | – | 339.2 ± 17.9 | 82.4 ± 10.2 | 46.7 ± 1.6 | 1.46 ± 0.11 | 1.26 ± 0.07 | 7.93 ± 0.18 | 4.24 ± 0.22 | 2.30 ± 0.15 | 2.50 ± 0.07 | 61.5 | – | – | –
SEQ ID NO: 12: phosphorothioate antisense nucleotide sequence containing the initiation codon region of rat OSF-2; the one selected in Example 7 (AGGAACCATCTTCAGCCCTG; all phosphorothioate, sugars by position and methylation of C not given here) | – | – | 210.0 ± 6.8 | 43.3 ± 5.1 | 49.5 ± 1.7 | 2.20 ± 0.13 | 1.68 ± 0.12 | 6.42 ± 0.09 | 3.25 ± 0.15 | 2.80 ± 0.17 | 3.07 ± 0.16 | 100 | stronger inhibitory activity against OSF-2 protein production than the sense and scramble nucleotide sequences | inhibited the expression the most strongly | inhibited cardiac dilatation
